In PMC5653818, “A Brain Penetrant Mutant IDH1 Inhibitor Provides In Vivo Survival Benefit” (Scientific Reports, 2017) one finds IC50 data, which are given here for 1 compound.

The target of this assay is IDH1 R132H (mutant isocitrate dehydrogenase 1) (Homo sapiens, UniProt O75874, R132H). In words: coupled enzymatic assay (GAPDH/PGK/luciferase luminescence) with R132H IDH1 enzyme. It counts as biochemical.
IDH1 R132H (mutant isocitrate dehydrogenase 1), sequence (O75874 2-414 R132H): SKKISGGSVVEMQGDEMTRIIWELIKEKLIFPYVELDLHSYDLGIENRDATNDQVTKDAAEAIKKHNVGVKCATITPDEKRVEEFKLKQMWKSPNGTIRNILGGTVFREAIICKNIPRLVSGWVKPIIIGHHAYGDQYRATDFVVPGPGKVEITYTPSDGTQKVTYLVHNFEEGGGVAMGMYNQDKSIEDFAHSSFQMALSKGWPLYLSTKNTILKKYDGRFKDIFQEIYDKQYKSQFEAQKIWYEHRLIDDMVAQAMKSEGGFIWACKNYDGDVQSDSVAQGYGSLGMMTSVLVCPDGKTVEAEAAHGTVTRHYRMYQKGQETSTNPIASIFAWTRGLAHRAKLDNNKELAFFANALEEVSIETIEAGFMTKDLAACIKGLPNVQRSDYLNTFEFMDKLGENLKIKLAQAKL

The IC50 is the concentration that inhibits the measured activity by half. A low value points to higher potency. `O=C(C1CCc2ccccc2CC1)N1Cc2cccnc2Nc2ccc(N3CCOCC3)cc21` [MRK-A]: the IC50 worked out at 5 nM.
